Legend:
Format in all cases: in vivo
[1] = test system: barnyardgrass (Echinochloa crus-galli); experiment: Test G Pre-Emergence Protocol; settings: Echinochloa crus-galli, pre-emergence, 312 h, evaluated after 13 days
Protocol: (§1) Seeds of corn (Zea mays), giant foxtail (Setaria faberi), barnyardgrass (Echinochloa crus-galli), ivy-leaved morning glory (Ipomoea hederacea), redroot pigweed (Amaranthus retroflexus) and velvetleaf (Abutilon theophrasti) were sown in standard soil in pots. After cultivation for one day under controlled conditions in a glasshouse (at 24/16° C., day/night; 14 hours light; 65% humidity), the plants were sprayed with an aqueous spray solution derived from the formulation of the technical active ingredient in acetone/water (50:50) solution containing 0.5% Tween 20 (polyoxyethylene sorbitan monolaurate, CAS RN 9005-64-5) to give a final dose of 15.625, 62.5 or 250 g/ha of test compound.
(§2) The test plants were then grown on under controlled conditions in a glasshouse (at 24/16° C., day/night; 14 hours light; 65% humidity) and watered twice daily. After 13 days the test was evaluated (100=total damage to plant; 0=no damage to plant). A dash (-) means no test result.

[2] = test system: corn (Zea mays); experiment: Test G Pre-Emergence Protocol; settings: Zea mays, pre-emergence, 312 h, evaluated after 13 days
Protocol: as §1, §2

[3] = test system: giant foxtail (Setaria faberi); experiment: Test G Pre-Emergence Protocol; settings: Setaria faberi, pre-emergence, 312 h, evaluated after 13 days
Protocol: as §1, §2

[4] = test system: ivy-leaved morning glory (Ipomoea hederacea); experiment: Test G Pre-Emergence Protocol; settings: Ipomoea, pre-emergence, 312 h, evaluated after 13 days
Protocol: as §1, §2

[5] = test system: redroot pigweed (Amaranthus retroflexus); experiment: Test G Pre-Emergence Protocol; settings: Amaranthus retroflexus, pre-emergence, 312 h, evaluated after 13 days
Protocol: as §1, §2

[6] = test system: velvetleaf (Abutilon theophrasti); experiment: Test G Pre-Emergence Protocol; settings: Abutilon theophrasti, pre-emergence, 312 h, evaluated after 13 days
Protocol: as §1, §2

[7] = test system: barnyardgrass (Echinochloa crus-galli); experiment: Test G Post-Emergence Protocol; settings: Echinochloa crus-galli, post-emergence, 312 h
Protocol: as §1, with “8 days” for “one day”
as §2

[8] = test system: corn (Zea mays); experiment: Test G Post-Emergence Protocol; settings: Zea mays, post-emergence, 312 h
Protocol: as §1, with “8 days” for “one day”
as §2

[9] = test system: giant foxtail (Setaria faberi); experiment: Test G Post-Emergence Protocol; settings: Setaria faberi, post-emergence, 312 h
Protocol: as §1, with “8 days” for “one day”
as §2

[10] = test system: ivy-leaved morning glory (Ipomoea hederacea); experiment: Test G Post-Emergence Protocol; settings: Ipomoea, post-emergence, 312 h
Protocol: as §1, with “8 days” for “one day”
as §2

[11] = test system: redroot pigweed (Amaranthus retroflexus); experiment: Test G Post-Emergence Protocol; settings: Amaranthus retroflexus, post-emergence, 312 h
Protocol: as §1, with “8 days” for “one day”
as §2

[12] = test system: velvetleaf (Abutilon theophrasti); experiment: Test G Post-Emergence Protocol; settings: Abutilon theophrasti, post-emergence, 312 h
Protocol: as §1, with “8 days” for “one day”
as §2

CN1C[C@H](c2ccc3c(c2)OCCO3)[C@@H](C(=O)Nc2cccc(F)c2F)C1=O (racemic) [Compound 1490]
90%: pest or weed control at 250 g/ha ([3]; 250 g ai/ha, read-out: Foxtail, Giant damage rating (100=total damage to plant; 0=no damage to plant))
80%: pest or weed control at 250 g/ha ([1]; 250 g ai/ha, read-out: Barnyardgrass damage rating (100=total damage to plant; 0=no damage to plant))
20%: pest or weed control at 250 g/ha ([12]; 250 g ai/ha, evaluated after 13 days, read-out: damage to plant, Velvetleaf (100=total damage to plant; 0=no damage to plant))
30%: plant injury at 62.5 g/ha ([8]; 62.5 g ai/ha, evaluated after 13 days, read-out: Corn damage rating (100=total damage to plant; 0=no damage to plant)) | pest or weed control at 250 g/ha ([10]; 250 g ai/ha, evaluated after 13 days, read-out: damage to plant, Morningglory, Ivy-leaved (100=total damage to plant; 0=no damage to plant))
40%: pest or weed control at 62.5 g/ha ([3]; 62.5 g ai/ha, 100=total damage to plant, 0=no damage to plant, read-out: plant damage rating, Foxtail, Giant) | plant injury at 250 g/ha ([8]; 250 g ai/ha, evaluated after 13 days, read-out: damage to plant, Corn (100=total damage to plant; 0=no damage to plant))
60%: pest or weed control at 62.5 g/ha ([7]; 62.5 g ai/ha, evaluated after 13 days, read-out: Barnyardgrass damage rating (100=total damage to plant; 0=no damage to plant)) | pest or weed control at 250 g/ha ([7]; 250 g ai/ha, evaluated after 13 days, read-out: damage to plant, Barnyardgrass (100=total damage to plant; 0=no damage to plant)) | pest or weed control at 62.5 g/ha ([9]; 62.5 g ai/ha, evaluated after 13 days, read-out: Foxtail, Giant damage rating (100=total damage to plant; 0=no damage to plant)) | pest or weed control at 250 g/ha ([9]; 250 g ai/ha, evaluated after 13 days, read-out: damage to plant, Foxtail, Giant (100=total damage to plant; 0=no damage to plant))
50%: pest or weed control at 62.5 g/ha ([1]; 62.5 g ai/ha, 100=total damage to plant, 0=no damage to plant, read-out: plant damage rating, Barnyardgrass) | pest or weed control at 15.625 g/ha ([7]; 15.625 g ai/ha, evaluated after 13 days (100=total damage to plant; 0=no damage to plant), read-out: Barnyardgrass damage rating) | pest or weed control at 15.625 g/ha ([9]; 15.625 g ai/ha, evaluated after 13 days (100=total damage to plant; 0=no damage to plant), read-out: Foxtail, Giant damage rating)
0%: pest or weed control at 15.625 g/ha ([1]; 15.625 g ai/ha, read-out: Barnyard grass damage rating (100=total damage to plant; 0=no damage to plant)) | plant injury at 15.625 g/ha ([2]; 15.625 g ai/ha, read-out: Corn damage rating (100=total damage to plant; 0=no damage to plant)) | plant injury at 62.5 g/ha ([2]; 62.5 g ai/ha, 100=total damage to plant, 0=no damage to plant, read-out: plant damage rating, Corn) | pest or weed control at 15.625 g/ha ([3]; 15.625 g ai/ha, read-out: Foxtail, Giant damage rating (100=total damage to plant; 0=no damage to plant)) | pest or weed control at 15.625 g/ha ([4]; 15.625 g ai/ha, read-out: Morning-glory, Ivy-leaved damage rating (100=total damage to plant; 0=no damage to plant)) | pest or weed control at 62.5 g/ha ([4]; 62.5 g ai/ha, 100=total damage to plant, 0=no damage to plant, read-out: plant damage rating, Morningglory, Ivy-leaved) | pest or weed control at 250 g/ha ([4]; 250 g ai/ha, read-out: Morningglory, Ivy-leaved damage rating (100=total damage to plant; 0=no damage to plant)) | pest or weed control at 15.625 g/ha ([5]; 15.625 g ai/ha, read-out: Pigweed, Redroot damage rating (100=total damage to plant; 0=no damage to plant)) | pest or weed control at 62.5 g/ha ([5]; 62.5 g ai/ha, 100=total damage to plant, 0=no damage to plant, read-out: plant damage rating, Pigweed, Redroot) | pest or weed control at 250 g/ha ([5]; 250 g ai/ha, read-out: Pigweed, Redroot damage rating (100=total damage to plant; 0=no damage to plant)) | pest or weed control at 15.625 g/ha ([6]; 15.625 g ai/ha, read-out: Velvetleaf damage rating (100=total damage to plant; 0=no damage to plant)) | pest or weed control at 62.5 g/ha ([6]; 62.5 g ai/ha, 100=total damage to plant, 0=no damage to plant, read-out: plant damage rating, Velvetleaf) | pest or weed control at 250 g/ha ([6]; 250 g ai/ha, read-out: Velvetleaf damage rating (100=total damage to plant; 0=no damage to plant)) | plant injury at 15.625 g/ha ([8]; 15.625 g ai/ha, evaluated after 13 days (100=total damage to plant; 0=no damage to plant), read-out: Corn damage rating) | pest or weed control at 15.625 g/ha ([10]; 15.625 g ai/ha, evaluated after 13 days (100=total damage to plant; 0=no damage to plant), read-out: Morningglory, Ivy-leaved damage rating) | pest or weed control at 62.5 g/ha ([10]; 62.5 g ai/ha, evaluated after 13 days, read-out: Morningglory, Ivy-leaved damage rating (100=total damage to plant; 0=no damage to plant)) | pest or weed control at 15.625 g/ha ([11]; 15.625 g ai/ha, evaluated after 13 days (100=total damage to plant; 0=no damage to plant), read-out: Pigweed, Redroot damage rating) | pest or weed control at 62.5 g/ha ([11]; 62.5 g ai/ha, evaluated after 13 days, read-out: Pigweed, Redroot damage rating (100=total damage to plant; 0=no damage to plant)) | pest or weed control at 250 g/ha ([11]; 250 g ai/ha, evaluated after 13 days, read-out: damage to plant, Pigweed, Redroot (100=total damage to plant; 0=no damage to plant)) | pest or weed control at 15.625 g/ha ([12]; 15.625 g ai/ha, evaluated after 13 days (100=total damage to plant; 0=no damage to plant), read-out: Velvetleaf damage rating) | pest or weed control at 62.5 g/ha ([12]; 62.5 g ai/ha, evaluated after 13 days, read-out: Velvetleaf damage rating (100=total damage to plant; 0=no damage to plant))
10%: plant injury at 250 g/ha ([2]; 250 g ai/ha, read-out: Corn damage rating (100=total damage to plant; 0=no damage to plant))
